This note sets out measurements from US20210169856A1, “FORMULATIONS COMPRISING DOPAMINE-B-HYDROXYLASE INHIBITORS AND METHODS FOR THEIR PREPARATION” (BIAL - PORTELA & CA, S.A., priority 2018, published 2021).

This series is described as follows: Solubility of Compound X, Ph. Eur. 6 / USP 33 descriptive terms. The series is classed as physicochemical. The source says:
In this specification, we are adopting the definitions of solubility from the classification in the European Pharmacopeia 6th Edition and the United States Pharmacopeia 33 (Reference Tables: Description and Solubility):
Further increase in pH results in solubility decrease. […] The pH-dependent solubility profile of Compound X presents certain challenges to the development of pharmaceutical formulations, namely for its dissolution.

Consider `Fc1cc(F)c2c(c1)C[C@@H](n1c(CCNCc3ccccc3)c[nH]c1=S)CO2` [Compound X], for which the Solubility result by setting is: (N,N-methylpyrrolidone) “sparingly soluble”; (acetone) “slightly soluble”; (acetonitrile) “very slightly soluble”; (acidified acetonitrile) “sparingly soluble”; (acidified methanol) “sparingly soluble”; (acidified water (pH 1.2-2.0)) “sparingly soluble”. The Solubility result is listed as “very slightly soluble” (chloroform); “insoluble” (cyclohexane); “slightly soluble” (dichloromethane); “sparingly soluble” (dimethyl sulfoxide); “sparingly soluble” (dimethylformamide); “practically insoluble” (ethanol). Also, the Solubility result by setting is: (ethyl acetate) “very slightly soluble”; (iso-octane) “insoluble”; (isopropanol) “insoluble”; (isopropyl acetate) “very slightly soluble”; (methanol) “very slightly soluble”; (methyl ethyl ketone) “slightly soluble”. For the same compound, the Solubility entry (tetrahydrofuran) is reported as “sparingly soluble”, the Solubility entry (toluene) is “very slightly soluble” and the Solubility entry (water) is given as “insoluble”. Further, under “aqueous medium”, the “Medium of maximum solubility” value is “HCl 0.01 (pH 2.0)”. Besides, the “pH dependence of solubility in aqueous medium” value (aqueous medium) was “decreases as the pH increases”.
